The values that follow come from US20090317419A1, “Tetramers” (Duke University, priority 2008, published 2009).

Read-outs that look alike come from different tables or passages of the source. Marks after values point to notes of the source that are not given here. Ends that are not written are not given here. * marks the point of attachment. Biotin = O=C1N[C@H]2[C@H](CS[C@H]2CCCCC(=O)*)N1

Assay [1] deals with mAb 13H11 (non-neutralizing anti-gp41 MPER). To be noted: SPR, mAb 13H11 captured. As for the experimental part: (§1) Surface Plasmon Resonance (SPR) measurements of tetramer binding to peptide epitopes. Tetramer binding assays were carried out on a BIAcore 3000 (BIAcore/GE Healthcare, Piscataway, N.J.) instrument using mAbs against each specific B cell epitope.
(§2) Each mAb (about 1000 RU) was first captured on anti-human Fc mAb (Pierce, Rockford, Ill.) immobilized on a CM5 sensor chip. Approximately 3000 RU of anti-human Fc mAb was covalently coupled to each flow cell of the sensor chip as described before (Alam et al, Journal of Immunology 178:4424-4435 (2007)). Each B cell tetramer was injected over its epitope specific mAb or a control surface immobilized with irrelevant mAb. For each tetramer binding curve, non-specific binding signals obtained from the control surface were subtracted. The binding assay was monitored at 25° C. and using PBS, pH 7.4, as the running buffer. The BIAevaluation 3.0 software (BIAcore/GE Healthcare, Piscataway, N.J.) was used for SPR binding data analyses.

Assay [2] has as its system mAb 2F5 (neutralizing anti-gp41 MPER). The conditions noted are these: SPR, mAb 2F5 captured. As for the experimental part: as §1, §2
The subject of assay [3] is CD19+ B cells of HIV-1 infected subject. As for the experimental part: Staining of bulk populations for the sorts. Cells from uninfected or HIV-1 infected patients were obtained by leukopheresis under an IRB-approved protocol and were rested in culture overnight in 10% FBS in RPMI-1640 at 37° C. in 5% CO2. Rested cells were enriched for B cells by depletion of non-B cells using magnetic bead separation (BD Biosciences, Mountain View, Calif.). […] Cells were sorted on a BD FACS Aria (BD Biosciences, Mountain View, Calif.) into CD3^− CD14^− CD16^− CD19^+ tetramer and CD3^− CD14^− CD16^− CD19^+ tetramer^+ pools and also as single cells into a 96-well plates containing RNA extraction buffer.

The next assay deals with B220+ BALB/c splenocytes. To be noted: pre-incubation with 10-fold molar excess unlabeled tetramer, 30 min on ice. As for the experimental part: (§3) Staining was conducted at 4° C. in several sequential steps in FACS staining buffer (1×PBS with 2% FCS, 0.1% NaN3), washing twice between steps. First, cells were incubated with v-amine live/dead dye for 15 min. Next, cells were stained with APC-labeled tetramers for 30 min. Where applicable, this was preceded by addition of cold tetramer at 10 fold molar excess for 1 h. Finally, cells were stained with Fc block for 30 min, followed by incubation with combinations of primary antibody cocktails for 30 min, and secondary staining with SA-Texas Red for 30 min.

The test system of assay [4] is B cell subsets from naive C57BL/6 mice. As for the experimental part:
Cell isolation, serum collection, and PBMC isolations. Heparinized or non-heparanized blood was collected sub-mandibularly 10 days after immunizations. For preparation of peripheral blood lymphocytes for B cell tetramer analysis, PBMC were isolated from blood collected in heparinized tubes (0.2 ml) using Lympholyte M (Cederlane). For Luminex and ELISA assays, sera was isolated from non-heparanized blood and stored at −20° C. until use. Spleen, bone marrow (BM), and peritoneal cavity (PerC) cells were also collected. For most immunizations, tissues were harvested after the 4th boost, except for kinetic studies, in which tissues from mice were harvested after 1, 3 or 7 days after a single immunization. For BM preparations, femora and tibiae were removed, aspirated with tissue medium using 23 gauge needles, filtered with 70 μm cell strainers (BD labware), and RBC-depleted using Tris-buffered ammonium chloride lysis. For splenocyte preparation, spleens were harvested and dissociated into single-cell suspensions either by passage through 70 μm cell strainers in tissue medium or by using frosted glass slides, and blood erythrocytes were depleted with ammonium chloride lysis. For isolation of peritoneal cells, peritoneal cavities of sacrificed mice were lavaged by injection with 10 ml of PBS, followed by gentle massage of the abdomen, and withdrawal of the peritoneal exudates. BM, splenic, and peritoneal single cell suspensions were centrifuged at 1500 rpm for 5 min and resuspended in 5, 10, and 1 ml of tissue media, respectively, for cell counts and immunofluorescence staining. Cell counts were performed in duplicate on a Coulter ZI Dual Threshold Cell Counter (Coulter).
Antibodies and flow cytometry. Immunofluorescent staining of single cell suspensions (≧2×10^6) was conducted using pre-mixed combinations of fluorochrome-labeled antibodies and APC-conjugated B cell tetramers at empirically-determined optimal concentrations. All antibodies were from BD unless otherwise stated. […] Other reagents included biotinylated antibodies against dump channel markers: Thy1 (Ox7; Abcam), F4/80 (BM8; Abcam), CD11c (clone HL3), Gr-1 (clone RB6-8C5), TER-119, and NK-1.1 (clone PK136), secondary staining SA-Texas Red conjugate; v-amine live/dead violet dye (Molecular Probes), and Fc block (anti-CD16/32; clone 2.4G2).
as §3
Data were acquired using an LSRII flow cytometer and Cell Quest software (BD Immunocytometry systems). A minimum of 250000 events were acquired per sample. FACS Analysis was performed using FlowJo software (Tree Star). For analysis, single cells were positively gated based on their forward scatter height vs. forward scatter area and side scatter height vs. side scatter area profiles, lymphocytes were then positively gated based on their forward and side scatter profile (live lymphocyte gate), residual dead cells were excluded with negative gating on v-amine live/dead dye, and all irrelevant non-B cells were excluded with negative gating on dump markers Thy1, F4/80, CD11c, Gr-1, TER-119, and NK-1.1.
To examine if gp41 2F5 MPER epitope reactivity across B cell subsets mapped similarly on the IgH^b allotype, reactivity to gp41 2F5 MPER tetramers was measured by measuring the percentage of APC-labeled gp41 2F5 MPER tetramer-reactive cells in C57BL/6 bone marrow, splenic, and peritoneal B cell subsets (Table 10).

The subject of assay [5] is B Cell Receptor of purified naïve BALB/c splenic B cells. The conditions noted are these: 10 μg/ml anti-Ig, 37° C., by 15 min.
Procedure: B cell purification, BCR internalization assay, and microscopy of BCR cap formation. Splenic B cells were purified by negative depletion of CD43-expressing non B cells with anti-mouse CD43 MACS beads (Miltenyi Biotechnology) resulting in fractions >90% B cells.
For analysis of BCR internalization by flow cytometry, purified B cells were pre-incubated on ice for 30 min with either a 95:5 unlabeled/R-PE-labeled mixture of 10 μg/ml goat anti-mouse-IgM+IgG (H+L) F(ab)2 fragments (Jackson ImmunoResearch laboratories). To remove excess reagent, cells were then washed, resuspended in DMEM 10% FCS, and stimulated by warming to 37° C. (or at 4° C. as a control) for the indicated time points. […] Percent internalization for tetramers was calculated on gp41 MPER+B220+ subsets (the gp41 MPER gate set based on the FMO control) by the formula [% gp41 MPER (To)−% gp41 MPER (Tn)]/% Sp62 (To)×100. In other experiments, cells were pre-incubated with either 5 mg/ml mannan, 125 mM α-methyl-mannopyranoside (Sigma-Aldrich), or 10 μg/ml unlabeled goat anti-mouse-IgM+IgG (H+L) F(ab)2 fragments, prior to staining with APC-labeled tetramers.

Take “Biotin-GGGQQEKNEQELLELDKWASLWN [gp41 MPER tetramer]”: the koff in assay [1] is given as 8.1 s^−1 × 10^−3; in assay [2], 0.37 s^−1 × 10^−3. Also, the kon worked out at 206 M^−1s^−1 × 10^3 in assay [1] and 174 M^−1s^−1 × 10^3 in assay [2]. The “tetramer positive cells of CD19+ B cells” value in assay [3] (before sorting, non-B cell depleted PBMC) worked out at 0.15%; in assay [3] (reanalysis after sorting of tetramer positive gate), 45.3%. Further, in the assay on B220+ BALB/c splenocytes, the “inhibition of binding of APC-labeled gp41 MPER-tetramer” value is on record as over 90%. For the same substance, the “% of subset binding tetramer ± SEM” value in assay [4] (C57BL/6, Bone marrow, Immature) was 0.30 ± 0.04%; in assay [4] (C57BL/6, Bone marrow, MF), 0.15 ± 0.06%; in assay [4] (C57BL/6, Bone marrow, Pro/pre), 0.05 ± 0.01%; in assay [4] (C57BL/6, Bone marrow, T1), 0.62 ± 0.10^d %; in assay [4] (C57BL/6, Bone marrow, T2), 0.54 ± 0.09^d %; in assay [4] (C57BL/6, Peritoneum, B1a) it was 0.52 ± 0.08%. For the same substance, the “% of subset binding tetramer ± SEM” value in assay [4] (C57BL/6, Peritoneum, B1b) was found to be 0.50 ± 0.13%; in assay [4] (C57BL/6, Peritoneum, B2), 0.32 ± 0.09%; in assay [4] (C57BL/6, Spleen, MF) it was 0.16 ± 0.02%; in assay [4] (C57BL/6, Spleen, MZ), 0.25 ± 0.04%; in assay [4] (C57BL/6, Spleen, T1) it was 0.24 ± 0.06%; in assay [4] (C57BL/6, Spleen, T2), 0.21 ± 0.07%. The substance further came in with a tetramer downmodulation in assay [5] of over 80%.
